Key:
[1] = biological target: T1, hERG (Homo sapiens, UniProt Q12809); test: (§1) Inhibition of hERG at 10 uM relative to control; assay type: toxicity
[2] = biological target: T2, CYP2D6 (Homo sapiens, UniProt P10635); test: Inhibition of CYP2D6 in human liver microsomes at 1 uM preincubated for 5 mins followed by NADPH addition by LC-MS/MS analysis relative to control; assay type: ADME, Microsome
[3] = Microsomal stability in human liver microsomes assessed as parent compound remaining at 1 uM measured upto 30 mins in presence of NADPH by LC-MS/MS analysis; assay type: ADME, Microsome; details: for remaining at 0.5 h, 1 µM: liver microsomes, read-out: Stability
[4] = biological target: T2, CYP2D6; test: Inhibition of CYP2D6 in human liver microsomes at 10 uM preincubated for 5 mins followed by NADPH addition by LC-MS/MS analysis relative to control; assay type: ADME, Microsome
[5] = biological target: T1, hERG; test: (§2) Inhibition of hERG at 1 uM relative to control; assay type: toxicity
[6] = Microsomal stability in rat liver microsomes assessed as parent compound remaining at 1 uM measured upto 30 mins in presence of NADPH by LC-MS/MS analysis; assay type: ADME, Microsome; details: read-out: Stability
[7] = biological target: T3, Extracellular calcium-sensing receptor (Homo sapiens, UniProt P41180); test: Agonist activity at human CaSR expresssed in HEK293 cells in presence of glucose by Fluo4NW dye based FLIPR assay; assay type: functional, cell-based
T3 sequence (P41180 whole entry): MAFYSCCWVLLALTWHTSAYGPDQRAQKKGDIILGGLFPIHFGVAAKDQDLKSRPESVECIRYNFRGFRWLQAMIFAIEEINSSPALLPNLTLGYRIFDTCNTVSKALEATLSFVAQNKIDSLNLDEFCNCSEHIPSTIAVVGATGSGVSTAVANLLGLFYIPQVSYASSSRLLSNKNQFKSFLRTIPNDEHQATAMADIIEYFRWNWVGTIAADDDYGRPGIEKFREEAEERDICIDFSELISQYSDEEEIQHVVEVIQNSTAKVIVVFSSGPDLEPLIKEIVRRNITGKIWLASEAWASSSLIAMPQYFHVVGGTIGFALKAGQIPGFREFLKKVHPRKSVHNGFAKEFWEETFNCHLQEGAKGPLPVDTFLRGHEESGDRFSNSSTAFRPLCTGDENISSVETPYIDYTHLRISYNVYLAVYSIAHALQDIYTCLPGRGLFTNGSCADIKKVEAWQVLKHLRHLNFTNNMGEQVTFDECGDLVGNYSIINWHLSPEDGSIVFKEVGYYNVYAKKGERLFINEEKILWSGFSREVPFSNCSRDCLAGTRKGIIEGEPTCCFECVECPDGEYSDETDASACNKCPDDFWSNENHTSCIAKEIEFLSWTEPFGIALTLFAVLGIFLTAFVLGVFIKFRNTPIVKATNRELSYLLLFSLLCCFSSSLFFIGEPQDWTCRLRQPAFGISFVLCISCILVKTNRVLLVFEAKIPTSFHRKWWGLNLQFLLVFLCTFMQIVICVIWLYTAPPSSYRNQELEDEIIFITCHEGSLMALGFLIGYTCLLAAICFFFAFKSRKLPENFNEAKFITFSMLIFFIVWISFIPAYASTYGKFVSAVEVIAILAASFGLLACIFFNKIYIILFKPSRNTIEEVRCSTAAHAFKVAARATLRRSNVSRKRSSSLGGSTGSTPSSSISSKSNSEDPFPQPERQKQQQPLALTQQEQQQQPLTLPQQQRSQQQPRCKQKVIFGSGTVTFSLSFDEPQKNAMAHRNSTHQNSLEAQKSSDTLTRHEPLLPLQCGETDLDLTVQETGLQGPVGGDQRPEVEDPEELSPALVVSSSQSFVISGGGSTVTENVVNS

[8] = biological target: T4, Voltage-gated inwardly rectifying potassium channel KCNH2 (Homo sapiens, UniProt Q12809); test: as §1; assay type: toxicity; details: 10 µM
[9] = biological target: T4, Voltage-gated inwardly rectifying potassium channel KCNH2; test: as §2; assay type: toxicity; details: 1 µM

T2 sequence (P10635 whole entry): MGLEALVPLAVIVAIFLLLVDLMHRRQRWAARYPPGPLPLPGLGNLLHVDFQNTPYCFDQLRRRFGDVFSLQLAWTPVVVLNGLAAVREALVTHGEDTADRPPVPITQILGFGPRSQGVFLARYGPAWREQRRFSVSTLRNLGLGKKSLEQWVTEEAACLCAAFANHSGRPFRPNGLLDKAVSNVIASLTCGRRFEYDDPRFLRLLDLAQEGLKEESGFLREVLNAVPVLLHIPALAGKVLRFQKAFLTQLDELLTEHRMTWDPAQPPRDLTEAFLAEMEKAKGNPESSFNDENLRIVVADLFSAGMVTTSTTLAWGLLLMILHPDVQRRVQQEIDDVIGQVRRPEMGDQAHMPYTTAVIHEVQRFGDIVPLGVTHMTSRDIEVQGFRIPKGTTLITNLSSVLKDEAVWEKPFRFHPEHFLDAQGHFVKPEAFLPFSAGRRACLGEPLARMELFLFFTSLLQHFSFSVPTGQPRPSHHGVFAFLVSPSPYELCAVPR
T1 sequence (Q12809 whole entry): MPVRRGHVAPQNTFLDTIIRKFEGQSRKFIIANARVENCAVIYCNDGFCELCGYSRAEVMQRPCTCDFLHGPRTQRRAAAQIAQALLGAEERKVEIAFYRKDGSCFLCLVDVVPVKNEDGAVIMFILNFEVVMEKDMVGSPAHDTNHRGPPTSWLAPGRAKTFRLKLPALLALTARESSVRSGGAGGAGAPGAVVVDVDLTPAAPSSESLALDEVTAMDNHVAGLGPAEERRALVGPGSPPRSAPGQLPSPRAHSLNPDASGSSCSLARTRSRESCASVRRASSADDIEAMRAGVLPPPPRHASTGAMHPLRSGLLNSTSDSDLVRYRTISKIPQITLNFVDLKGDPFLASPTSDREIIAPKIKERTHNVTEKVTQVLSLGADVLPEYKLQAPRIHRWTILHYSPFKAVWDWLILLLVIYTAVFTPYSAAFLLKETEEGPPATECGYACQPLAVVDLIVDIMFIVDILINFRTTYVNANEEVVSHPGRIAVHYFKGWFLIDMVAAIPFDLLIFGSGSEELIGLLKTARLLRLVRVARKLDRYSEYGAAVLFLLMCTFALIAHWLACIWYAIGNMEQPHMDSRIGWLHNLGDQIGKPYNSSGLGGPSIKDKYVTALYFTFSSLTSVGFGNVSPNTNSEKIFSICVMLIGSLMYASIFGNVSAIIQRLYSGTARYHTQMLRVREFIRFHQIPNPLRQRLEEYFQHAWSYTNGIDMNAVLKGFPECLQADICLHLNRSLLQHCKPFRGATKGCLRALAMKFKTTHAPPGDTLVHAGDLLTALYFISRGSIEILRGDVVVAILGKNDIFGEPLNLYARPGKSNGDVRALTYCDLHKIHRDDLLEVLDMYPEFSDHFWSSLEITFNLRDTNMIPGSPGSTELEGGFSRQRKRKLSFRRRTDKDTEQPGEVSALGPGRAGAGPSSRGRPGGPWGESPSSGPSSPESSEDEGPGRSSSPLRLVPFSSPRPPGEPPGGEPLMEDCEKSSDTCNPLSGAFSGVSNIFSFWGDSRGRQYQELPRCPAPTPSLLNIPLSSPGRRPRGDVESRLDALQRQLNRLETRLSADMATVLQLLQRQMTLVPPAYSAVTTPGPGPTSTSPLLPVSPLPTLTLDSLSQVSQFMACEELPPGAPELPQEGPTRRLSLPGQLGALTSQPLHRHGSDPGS
T4 sequence (Q12809 whole entry): as above

`COc1ccc([C@@H]2C[C@H](CN[C@H](C)c3cccc4ccccc34)Oc3ccccc32)cc1C(=O)O` gave an inhibition at 10 µM [1] of -4%, an inhibition at 1 µM [2] of 0% and a remaining at 0.5 h, 1 µM [3] of 77%. The inhibition at 10 µM [4] was 0%, the inhibition at 1 µM [5] was -3% and the remaining at 0.5 h, 1 µM [6] was 88%.

Compound `COc1ccc(N2CC(CN[C@H](C)c3cccc4ccccc34)Oc3ccccc32)cc1C(=O)O` (mixture of isomers; form 1) has an EC50 ([7]; read-out: EC50) greater than 0.3 µM.

In the case of `Cc1ccc([C@H]2C[C@H](CN[C@H](C)c3cccc4ccccc34)Oc3ccccc32)cc1C(=O)O`, the EC50 ([7]; read-out: EC50) is reported as 0.0585 µM.

For `C[C@@H](NCC1CN(c2cccc(CCC(=O)O)c2)c2ccccc2O1)c1cccc2ccccc12.Cl` (mixture of isomers), the EC50 ([7]; hek293) was “Not Active” and the EC50 ([7]; read-out: EC50) was 0.0704 µM.

With `C[C@@H](NCC1CN(c2ccccc2C(=O)O)c2ccccc2O1)c1cccc2ccccc12.Cl` (mixture of isomers) the EC50 ([7]; hek293) was “Not Active”.

For `Cc1cc(C(=O)O)cc([C@@H]2C[C@H](CN[C@H](C)c3cccc4ccccc34)Oc3ccccc32)c1`, the inhibition at 10 µM [1] was 6%, the inhibition at 1 µM [2] was 0% and the remaining at 0.5 h, 1 µM [3] was 80%. The inhibition at 10 µM [4] was 33%, the inhibition at 1 µM [5] was 0% and the EC50 ([7]; read-out: EC50) was 0.0083 µM. For the same compound, the remaining at 0.5 h, 1 µM [6] was 25%.

Compound `C[C@@H](NCC1CN(c2ccc(C(=O)O)cc2)c2ccccc2O1)c1cccc2ccccc12` (stereo partly drawn) has an inhibition at 10 µM [1] of -43%, an inhibition at 1 µM [2] of 65% and a remaining at 0.5 h, 1 µM [3] of 34%. It also gave an inhibition at 10 µM [4] of 65%, an inhibition at 1 µM [5] of 5% and an EC50 ([7]; read-out: EC50) of 0.0649 µM. For the same compound, the remaining at 0.5 h, 1 µM [6] was 28%.

With `Cc1c(C(=O)O)cccc1N1CC(CN[C@H](C)c2cccc3ccccc23)Oc2ccccc21.Cl` (mixture of isomers; form 2) the “inhibition (INH)” value [8] was -16%, the Stability ([3]; microsomes, 0.5 h, 1 µM) was 10% and the “inhibition (INH)” value [9] was -28%. It also gave an EC50 ([7]; read-out: EC50) of 0.0495 µM.

With `C[C@@H](NCC1CN(c2ccccn2)c2ccccc2O1)c1cccc2ccccc12` (stereo partly drawn) the inhibition at 1 µM [2] was 85%, the remaining at 0.5 h, 1 µM [3] was 2% and the inhibition at 10 µM [4] was 87%. For the same compound, the remaining at 0.5 h, 1 µM [6] was 5%.

`Cc1ccc([C@H]2C[C@@H](CN[C@H](C)c3cccc4ccccc34)Oc3ccccc32)cc1C(=O)O` showed an inhibition at 10 µM [1] of 1%, an inhibition at 1 µM [2] of 7% and a remaining at 0.5 h, 1 µM [3] of 74%. For the same compound, the inhibition at 10 µM [4] was 32%, the inhibition at 1 µM [5] was 9% and the EC50 ([7]; read-out: EC50) was 0.0037 µM. It also gave a remaining at 0.5 h, 1 µM [6] of 62%.

For `C[C@@H](NC[C@H]1C[C@H](c2cccc(C(=O)O)c2)c2ccccc2O1)c1cccc2ccccc12`, the inhibition at 1 µM [2] was 8%, the remaining at 0.5 h, 1 µM [3] was 57% and the inhibition at 10 µM [4] was 24%. For the same compound, the remaining at 0.5 h, 1 µM [6] was 31%.

In the case of `C[C@@H](NCC1CNc2ccccc2O1)c1cccc2ccccc12` (stereo partly drawn), the inhibition at 10 µM [1] is reported as 97%, the inhibition at 1 µM [2] is reported as 94% and the remaining at 0.5 h, 1 µM [3] is reported as 18%. The inhibition at 10 µM [4] was 94%, the inhibition at 1 µM [5] was 19% and the remaining at 0.5 h, 1 µM [6] was 0%.

With `C[C@@H](NCC1CN(c2ccccc2)c2ccccc2O1)c1cccc2ccccc12` (mixture of isomers; form 1) the inhibition at 10 µM [1] was 26%, the inhibition at 1 µM [2] was 87% and the remaining at 0.5 h, 1 µM [3] was 1%. It also gave an inhibition at 1 µM [5] of 14%, an EC50 ([7]; read-out: EC50) of 0.0534 µM and a remaining at 0.5 h, 1 µM [6] of 3%.

Compound `C[C@@H](NCC1CN(CC(F)(F)F)c2ccccc2O1)c1cccc2ccccc12` (stereo partly drawn) has an inhibition at 1 µM [2] of 78%, a remaining at 0.5 h, 1 µM [3] of 10% and an inhibition at 10 µM [4] of 82%. For the same compound, the remaining at 0.5 h, 1 µM [6] was 5%.

`Cc1ccc(N2CC(CN[C@H](C)c3cccc4ccccc34)Oc3ccccc32)cc1C(=O)O` (mixture of isomers) showed an EC50 ([7]; read-out: EC50) of 0.0714 µM.

For `COc1ccc(N2CC(CN[C@H](C)c3cccc4ccccc34)Oc3ccccc32)cc1C(=O)O` (mixture of isomers; form 2), the EC50 ([7]; read-out: EC50) was greater than 0.09 µM.

In the case of `C[C@@H](NCC1CN(C(=O)c2ccccc2)c2ccccc2O1)c1cccc2ccccc12` (mixture of isomers; form 2), the EC50 ([7]; read-out: EC50) is reported as 0.09 µM.
